From PMC5218480 (PLoS ONE, 2017)

System: MV-4-11 cells
Test: Gene expression microarray analysis (Affymetrix PrimeView) and GSEA
Format: cell-based, human
Design: RFU PODN (11730768_x_at) / Fold change /veh PODN (11730768_x_at) / RFU LINC00158 (11744669_a_at) / Fold change /veh LINC00158 (11744669_a_at) / RFU DUSP10 (11751237_a_at) / Fold change /veh DUSP10 (11751237_a_at) / RFU ID3 (11757404_x_at) / Fold change /veh ID3 (11757404_x_at) / RFU PLEKHG5 (11737974_s_at) / Fold change /veh PLEKHG5 (11737974_s_at) / RFU LRRC4B (11730491_at) / Fold change /veh LRRC4B (11730491_at) / RFU GIMAP4 (11747438_a_at) / Fold change /veh GIMAP4 (11747438_a_at) / RFU KRT8 (11758183_x_at) / Fold change /veh KRT8 (11758183_x_at) / RFU CNN1 (11734310_a_at) / Fold change /veh CNN1 (11734310_a_at) / RFU VPS37D (11726825_at) / Fold change /veh VPS37D (11726825_at) / RFU C10orf10 (11716522_x_at) / Fold change /veh C10orf10 (11716522_x_at) / RFU KIR2DL2 /// KIR2DL4 /// KIR2DL5A /// KIR2DL5B /// KIR2DS1 /// KIR2DS2 /// KIR2DS3 /// KIR2DS4 /// KIR3DL3 /// KIR3DL3 /// KIR3DS1 (11738374_at) / Fold change /veh KIR2DL2 /// KIR2DL4 /// KIR2DL5A /// KIR2DL5B /// KIR2DS1 /// KIR2DS2 /// KIR2DS3 /// KIR2DS4 /// KIR3DL3 /// KIR3DL3 /// KIR3DS1 (11738374_at) / RFU C1QL1 (11718748_at) / Fold change /veh C1QL1 (11718748_at) / RFU TMPRSS4 (11747572_a_at) / Fold change /veh TMPRSS4 (11747572_a_at) / RFU HAMP (11756126_x_at) / Fold change /veh HAMP (11756126_x_at) / RFU RNFT2 (11725882_a_at) / Fold change /veh RNFT2 (11725882_a_at) / RFU NR4A2 (11747474_a_at) / Fold change /veh NR4A2 (11747474_a_at) / RFU ABCC12 (11746883_a_at) / Fold change /veh ABCC12 (11746883_a_at) / RFU TMEM136 (11760407_x_at) / Fold change /veh TMEM136 (11760407_x_at) / RFU CLDN22 /// WWC2 (11732394_at) / Fold change /veh CLDN22 /// WWC2 (11732394_at) / RFU HLA-DPB1 (11760878_x_at) / Fold change /veh HLA-DPB1 (11760878_x_at) / RFU SPINT1 (11716480_a_at) / Fold change /veh SPINT1 (11716480_a_at) / RFU GAP43 (11754022_s_at) / Fold change /veh GAP43 (11754022_s_at) / RFU A4GNT (11735810_at) / Fold change /veh A4GNT (11735810_at) / RFU PRB3 (11715151_x_at) / Fold change /veh PRB3 (11715151_x_at) / RFU TUBB4B (11761932_at) / Fold change /veh TUBB4B (11761932_at) / RFU CAPN14 (11732068_a_at) / Fold change /veh CAPN14 (11732068_a_at) / RFU TMCC2 (11721928_a_at) / Fold change /veh TMCC2 (11721928_a_at) / RFU IRGQ (11745062_a_at) / Fold change /veh IRGQ (11745062_a_at) / RFU FAM174B (11720279_a_at) / Fold change /veh FAM174B (11720279_a_at) / RFU TMPRSS4 (11748680_a_at) / Fold change /veh TMPRSS4 (11748680_a_at) / RFU FAM212B (11763350_a_at) / Fold change /veh FAM212B (11763350_a_at) / RFU PLEKHG5 (11743358_a_at) / Fold change /veh PLEKHG5 (11743358_a_at) / RFU ZSCAN30 (11745921_a_at) / Fold change /veh ZSCAN30 (11745921_a_at) / RFU CMKLR1 (11741424_a_at) / Fold change /veh CMKLR1 (11741424_a_at) / RFU LOC101060620 /// MAPK8IP1 (11723275_at) / Fold change /veh LOC101060620 /// MAPK8IP1 (11723275_at) / RFU SPTSSB (11747773_x_at) / Fold change /veh SPTSSB (11747773_x_at) / RFU PRSS12 (11739890_at) / Fold change /veh PRSS12 (11739890_at) / RFU BIN1 (11741810_x_at) / Fold change /veh BIN1 (11741810_x_at) / RFU WNT11 (11732464_a_at) / Fold change /veh WNT11 (11732464_a_at) / RFU C10orf10 (11716521_a_at) / Fold change /veh C10orf10 (11716521_a_at) / RFU C5orf56 (11738089_at) / Fold change /veh C5orf56 (11738089_at) / RFU CYB561 (11721691_x_at) / Fold change /veh CYB561 (11721691_x_at) / RFU ANKRD19P (11752326_a_at) / Fold change /veh ANKRD19P (11752326_a_at) / RFU OR2T12 /// OR2T33 /// OR2T8 (11738714_s_at) / Fold change /veh OR2T12 /// OR2T33 /// OR2T8 (11738714_s_at) / RFU VCAN (11748164_a_at) / Fold change /veh VCAN (11748164_a_at) / RFU JSRP1 (11732532_at) / Fold change /veh JSRP1 (11732532_at) / RFU KRTAP10-11 (11738290_x_at) / Fold change /veh KRTAP10-11 (11738290_x_at) / RFU MYO3A (11730013_a_at) / Fold change /veh MYO3A (11730013_a_at) / RFU EBF3 (11725865_a_at) / Fold change /veh EBF3 (11725865_a_at) / RFU CAMK2N1 (11719241_x_at) / Fold change /veh CAMK2N1 (11719241_x_at) / RFU C5orf56 (11738088_a_at) / Fold change /veh C5orf56 (11738088_a_at) / RFU OLFML3 (11715873_a_at) / Fold change /veh OLFML3 (11715873_a_at) / RFU LOC100653217 /// NTM (11731650_a_at) / Fold change /veh LOC100653217 /// NTM (11731650_a_at) / RFU MAPK11 (11762145_a_at) / Fold change /veh MAPK11 (11762145_a_at) / RFU FIZ1 (11724087_x_at) / Fold change /veh FIZ1 (11724087_x_at) / RFU OASL (11726364_x_at) / Fold change /veh OASL (11726364_x_at) / RFU SOX15 (11748057_x_at) / Fold change /veh SOX15 (11748057_x_at) / RFU CD79A (11719716_a_at) / Fold change /veh CD79A (11719716_a_at) / RFU HIST1H1D (11736915_at) / Fold change /veh HIST1H1D (11736915_at) / RFU CASKIN2 (11723855_a_at) / Fold change /veh CASKIN2 (11723855_a_at) / RFU LOC730098 (11760151_x_at) / Fold change /veh LOC730098 (11760151_x_at) / RFU OR4N2 (11742367_at) / Fold change /veh OR4N2 (11742367_at) / RFU PRRT2 (11749266_a_at) / Fold change /veh PRRT2 (11749266_a_at) / RFU SNX32 (11753110_a_at) / Fold change /veh SNX32 (11753110_a_at) / RFU CDHR5 (11726645_a_at) / Fold change /veh CDHR5 (11726645_a_at) / RFU RCAN1 (11760418_a_at) / Fold change /veh RCAN1 (11760418_a_at) / RFU FAM167A (11723789_a_at) / Fold change /veh FAM167A (11723789_a_at) / RFU FAM26E (11764081_at) / Fold change /veh FAM26E (11764081_at) / RFU ISYNA1 (11749810_s_at) / Fold change /veh ISYNA1 (11749810_s_at) / RFU ACY1 (11761880_at) / Fold change /veh ACY1 (11761880_at) / RFU 11764098_at / Fold change /veh 11764098_at / RFU SAMD14 (11745864_x_at) / Fold change /veh SAMD14 (11745864_x_at) / RFU NPB (11741838_a_at) / Fold change /veh NPB (11741838_a_at) / RFU TMPRSS6 (11731388_a_at) / Fold change /veh TMPRSS6 (11731388_a_at) / RFU KRTAP10-2 (11738614_at) / Fold change /veh KRTAP10-2 (11738614_at) / RFU ARHGAP8 /// PRR5-ARHGAP8 (11727945_x_at) / Fold change /veh ARHGAP8 /// PRR5-ARHGAP8 (11727945_x_at) / RFU KRTAP5-7 /// NADSYN1 (11734609_at) / Fold change /veh KRTAP5-7 /// NADSYN1 (11734609_at) / RFU RASL12 (11751679_a_at) / Fold change /veh RASL12 (11751679_a_at) / RFU CDKN2B (11736163_a_at) / Fold change /veh CDKN2B (11736163_a_at) / RFU PRF1 (11729649_at) / Fold change /veh PRF1 (11729649_at) / RFU, ZNF638 /// ZNF638-IT1 / Fold change vs veh, ZNF638 /// ZNF638-IT1 / RFU, PANK3 / Fold change vs veh, PANK3 / RFU, SH3YL1 / Fold change vs veh, SH3YL1 / RFU, ZEB2 / Fold change vs veh, ZEB2 / RFU, NRIP1 / Fold change vs veh, NRIP1 / RFU, PTTG1IP / Fold change vs veh, PTTG1IP / RFU, CAPN2 / Fold change vs veh, CAPN2 / RFU, MED14 / Fold change vs veh, MED14 / RFU, SNORA58 / Fold change vs veh, SNORA58 / RFU, C1orf63 / Fold change vs veh, C1orf63 / RFU, LRRFIP1 / Fold change vs veh, LRRFIP1 / RFU, NDUFAF7 / Fold change vs veh, NDUFAF7 / RFU, SLC12A2 / Fold change vs veh, SLC12A2 / RFU, IBTK / Fold change vs veh, IBTK / RFU, ESF1 / Fold change vs veh, ESF1 / Fold change vs veh, TMEM50B / RFU, TAOK1 / Fold change vs veh, TAOK1 / RFU, ACBD3 / Fold change vs veh, ACBD3 / RFU, TMA16 / Fold change vs veh, TMA16 / RFU, RWDD3 / Fold change vs veh, RWDD3 / RFU, BCAT1 / Fold change vs veh, BCAT1 / RFU, EDEM3 / Fold change vs veh, EDEM3 / RFU, TMEM33 / Fold change vs veh, TMEM33 / RFU, WDR75 / Fold change vs veh, WDR75 / RFU, AHCTF1 / Fold change vs veh, AHCTF1 / RFU, TFRC / Fold change vs veh, TFRC / RFU, ZDHHC17 / Fold change vs veh, ZDHHC17 / RFU, NOM1 / Fold change vs veh, NOM1 / RFU, ARL8B / Fold change vs veh, ARL8B / RFU, ZBTB11 / Fold change vs veh, ZBTB11 / RFU, TAMM41 / Fold change vs veh, TAMM41 / RFU, KIAA1704 /// LOC100996395 / Fold change vs veh, KIAA1704 /// LOC100996395 / RFU, ING1 / Fold change vs veh, ING1 / RFU, TRMT61B / Fold change vs veh, TRMT61B / RFU, FUBP3 / Fold change vs veh, FUBP3 / RFU, TP53 / Fold change vs veh, TP53 / RFU, TNKS2 / Fold change vs veh, TNKS2 / RFU, ZFP14 / Fold change vs veh, ZFP14 / RFU, ACTR2 / Fold change vs veh, ACTR2 / RFU, PPP3R1 / Fold change vs veh, PPP3R1 / RFU, PIK3R1 / Fold change vs veh, PIK3R1 / RFU, HNRNPA1 / Fold change vs veh, HNRNPA1 / RFU, RNF170 / Fold change vs veh, RNF170 / RFU, ZNF28 / Fold change vs veh, ZNF28 / RFU, RNGTT / Fold change vs veh, RNGTT / RFU, OGT / Fold change vs veh, OGT / RFU, BRD1 / Fold change vs veh, BRD1 / RFU, MARS / Fold change vs veh, MARS / RFU, ZNF655 / Fold change vs veh, ZNF655 / RFU, FAHD1 / Fold change vs veh, FAHD1 / RFU, BDP1 / Fold change vs veh, BDP1 / RFU, LRRCC1 / Fold change vs veh, LRRCC1 / RFU, ARID1A / Fold change vs veh, ARID1A / RFU, ZNF146 / Fold change vs veh, ZNF146 / RFU, ZNF330 / Fold change vs veh, ZNF330 / RFU, GPN3 / Fold change vs veh, GPN3 / RFU, C9orf123 / Fold change vs veh, C9orf123 / RFU, N4BP2L2 / Fold change vs veh, N4BP2L2 / RFU, ARFIP1 / Fold change vs veh, ARFIP1 / RFU, FAM179B / Fold change vs veh, FAM179B / RFU, BCL10 / Fold change vs veh, BCL10 / RFU, UHRF1BP1L / Fold change vs veh, UHRF1BP1L / RFU, BET1 / Fold change vs veh, BET1 / RFU, CNOT2 / Fold change vs veh, CNOT2 / RFU, ZNF268 / Fold change vs veh, ZNF268 / Fold change vs veh, ZNF507 / RFU, DGCR2 / Fold change vs veh, DGCR2 / RFU, WDSUB1 / Fold change vs veh, WDSUB1 / Fold change vs veh, HSP90B1 /// MIR3652 / RFU, ADSS / Fold change vs veh, ADSS / RFU, GK / Fold change vs veh, GK / RFU, ZNF148 / Fold change vs veh, ZNF148 / RFU, TAF9 / Fold change vs veh, TAF9 / RFU, SLC1A5 / Fold change vs veh, SLC1A5 / RFU, SLMO2 / Fold change vs veh, SLMO2 / RFU, ABCC4 / Fold change vs veh, ABCC4 / RFU, LOC101060439 /// RAP1B / Fold change vs veh, LOC101060439 /// RAP1B / RFU, RFX7 / Fold change vs veh, RFX7 / RFU, GTPBP10 / Fold change vs veh, GTPBP10 / RFU, CNEP1R1 / Fold change vs veh, CNEP1R1 / RFU, BIVM-ERCC5 /// ERCC5 / Fold change vs veh, BIVM-ERCC5 /// ERCC5 / RFU, ILF3 / Fold change vs veh, ILF3 / RFU 11762660_at / Fold change /veh 11762660_at / RFU VCAN (11757783_s_at) / Fold change /veh VCAN (11757783_s_at) / RFU DDX43 (11728927_at) / Fold change /veh DDX43 (11728927_at) / RFU KRT8 (11758188_x_at) / Fold change /veh KRT8 (11758188_x_at) / RFU NKD1 (11759106_at) / Fold change /veh NKD1 (11759106_at) / RFU SRD5A1 (11742802_a_at) / Fold change /veh SRD5A1 (11742802_a_at) / RFU TPSAB1 /// TPSB2 (11721975_s_at) / Fold change /veh TPSAB1 /// TPSB2 (11721975_s_at) / RFU GSTM3 (11746129_a_at) / Fold change /veh GSTM3 (11746129_a_at) / RFU IL23R (11737362_x_at) / Fold change /veh IL23R (11737362_x_at) / RFU TMEM51 (11727254_a_at) / Fold change /veh TMEM51 (11727254_a_at) / RFU PIWIL2 (11732686_x_at) / Fold change /veh PIWIL2 (11732686_x_at) / RFU ORM1 (11744905_x_at) / Fold change /veh ORM1 (11744905_x_at) / RFU CCDC152 (11743942_at) / Fold change /veh CCDC152 (11743942_at) / RFU ECM1 (11717891_a_at) / Fold change /veh ECM1 (11717891_a_at) / RFU IL23R (11748794_a_at) / Fold change /veh IL23R (11748794_a_at) / RFU TNFAIP8L3 (11732012_x_at) / Fold change /veh TNFAIP8L3 (11732012_x_at) / RFU MBOAT4 (11741988_at) / Fold change /veh MBOAT4 (11741988_at) / RFU 11764193_at / Fold change /veh 11764193_at / RFU TMEM53 (11763286_at) / Fold change /veh TMEM53 (11763286_at) / RFU MAGEB2 (11727129_at) / Fold change /veh MAGEB2 (11727129_at) / RFU TMEM200A (11744735_a_at) / Fold change /veh TMEM200A (11744735_a_at) / RFU CCDC152 (11751479_a_at) / Fold change /veh CCDC152 (11751479_a_at) / RFU FAM211A (11726209_a_at) / Fold change /veh FAM211A (11726209_a_at) / RFU RGS16 (11746705_a_at) / Fold change /veh RGS16 (11746705_a_at) / RFU VCAN (11755009_s_at) / Fold change /veh VCAN (11755009_s_at) / RFU RHOB (11743442_s_at) / Fold change /veh RHOB (11743442_s_at) / RFU RGS16 (11720943_a_at) / Fold change /veh RGS16 (11720943_a_at) / RFU RGS16 (11720944_at) / Fold change /veh RGS16 (11720944_at) / RFU, VPS4B / Fold change vs veh, VPS4B / RFU, CREB1 / Fold change vs veh, CREB1 / RFU, DNAJC13 / Fold change vs veh, DNAJC13 / RFU, GNAQ / Fold change vs veh, GNAQ / RFU, CDK5R1 / Fold change vs veh, CDK5R1 / RFU, ZRANB3 / Fold change vs veh, ZRANB3 / RFU, CUL4A / Fold change vs veh, CUL4A / RFU, CCNY / Fold change vs veh, CCNY / RFU, UFL1 / Fold change vs veh, UFL1 / RFU, COG3 / Fold change vs veh, COG3 / RFU, DIAPH2 / Fold change vs veh, DIAPH2 / RFU, SKA2 / Fold change vs veh, SKA2 / RFU, AFF3 / Fold change vs veh, AFF3 / RFU, LMF1 / Fold change vs veh, LMF1 / RFU, IPO11 / Fold change vs veh, IPO11 / RFU, DFFB / Fold change vs veh, DFFB / RFU, FOXP1 / Fold change vs veh, FOXP1 / RFU, CARD8 / Fold change vs veh, CARD8 / RFU, STRN3 / Fold change vs veh, STRN3 / RFU, ADK / Fold change vs veh, ADK / RFU, RASSF2 / Fold change vs veh, RASSF2 / RFU, WIPF1 / Fold change vs veh, WIPF1 / RFU, LARP1B / Fold change vs veh, LARP1B / RFU, RASA1 / Fold change vs veh, RASA1 / RFU, RB1 / Fold change vs veh, RB1 / RFU, PPFIA1 / Fold change vs veh, PPFIA1 / RFU, MAT2A / Fold change vs veh, MAT2A / RFU, CCT5 / Fold change vs veh, CCT5 / RFU, WDR92 / Fold change vs veh, WDR92 / RFU, CUX1 / Fold change vs veh, CUX1 / RFU, TTC7A / Fold change vs veh, TTC7A / RFU, TMEM135 / Fold change vs veh, TMEM135 / RFU, DEPTOR / Fold change vs veh, DEPTOR / RFU, CPM / Fold change vs veh, CPM / RFU, DNAJB6 / Fold change vs veh, DNAJB6 / RFU, CACNA2D3 / Fold change vs veh, CACNA2D3 / RFU, DTX4 / Fold change vs veh, DTX4 / RFU, TFCP2 / Fold change vs veh, TFCP2 / RFU, GMCL1 /// GMCL1P1 / Fold change vs veh, GMCL1 /// GMCL1P1 / RFU, AEBP2 / Fold change vs veh, AEBP2 / RFU, SNHG1 /// SNORD22 /// SNORD25 /// SNORD26 /// SNORD27 /// SNORD28 /// SNORD29 /// SNORD31 / Fold change vs veh, SNHG1 /// SNORD22 /// SNORD25 /// SNORD26 /// SNORD27 /// SNORD28 /// SNORD29 /// SNORD31 / Fold change (Aza/veh), C12orf56 (ProbeSet 11735607_a_at) / Fold change (ACY-1035/veh), C12orf56 (ProbeSet 11735607_a_at) / Fold change (Aza/veh), FGFR1OP (ProbeSet 11751329_s_at) / Fold change (ACY-1035/veh), FGFR1OP (ProbeSet 11751329_s_at) / Fold change (Aza/veh), VPS36 (ProbeSet 11739960_a_at) / Fold change (ACY-1035/veh), VPS36 (ProbeSet 11739960_a_at) / RFU SYPL1 (11715823_x_at) / Fold change /veh SYPL1 (11715823_x_at) / RFU IGFBP7 (11715501_s_at) / Fold change /veh IGFBP7 (11715501_s_at) / RFU REEP3 (11722064_at) / Fold change /veh REEP3 (11722064_at) / RFU IGLL1 (11728026_x_at) / Fold change /veh IGLL1 (11728026_x_at): dose or concentration left out as unconfirmed
Details: ProbeSet 11752001_a_at; LIST D

Nc1ncn([C@@H]2O[C@H](CO)[C@@H](O)[C@H]2O)c(=O)n1 [azacitidine]
RFU, CUL4A: 406.78 RFU
